# Patent US9856247B2, “4-methyl-dihydropyrimidines for the treatment and prophylaxis of Hepatitis B virus infection” (Hoffmann-La Roche Inc., priority 2012, dated 2018)
# Experiments:
# HBV DNA = assay: Anti-HBV activity in HepDE19 cells (HBV DNA dot-blot); assay type: cell-based, Hepatitis B virus (HBV); settings: Hepatitis B virus, 120 h; HepDE19 cells, five days after compound treatment, concentration that inhibited HBV DNA by 50%; read-out: HepDe19 EC50
# From the text: Cells and culture conditions: HepDE19 (Haitao Guo et al, Journal of Virology, 81, November 2007, 12472-12484; Richeng Mao et al, Journal of Virology, 85, January 2011, 1048-1057) cells were derived from HepG2 (ATCC, American Type Culture Collection) cells through transfection with pTet-off plasmid (Clontech) that expresses the Tet-responsive transcriptional activator and pTREHBVDE plasmid in which HBV pgRNA expression is controlled by a CMV early promoter with a tetracycline-responsive element. The transfected cells were selected with G418 (also known as Genticin, purchased from Invitrogen). […] These cells were maintained in Dulbecco's modified Eagle's medium (DMEM)-F12 medium (Invitrogen) supplemented with 10% fetal bovine serum, 100 U/ml penicillin, and 100 μg/ml streptomycin, 0.5 mg/ml of G418 and 1 μg/ml tetracycline.
# Anti-HBV activity and cytotoxicity: HepDE19 cells were seeded into 96-well plates (3×10^4 cells/well) with tetracycline-free medium and incubated overnight at 37° C. The test or control compounds were serially half-log diluted with medium and added into the plates (the final concentration of DMSO kept at 0.5% in each well). Five days after compound treatment, cells were washed with PBS and lysed with 50 mM Tris-1 mM EDTA-0.2% CA-630 (pH 8.0) at 37° C. for 20 min. After centrifugation to remove nuclei and other debris, the supernatant was transferred into a new plate and incubated with 2M NaOH/20×SSC (3M NaCl, 0.3M Sodium citrate, pH7.0) at rt for 30 min. Then the samples were transferred to nylon membrane and neutralized with 1M Tris (pH7.4)/2M NaCl. The presence of HBV DNA was detected by dot-blot with DIG-labeled HBV specific DNA probe and quantified by dot density. The compound concentrations that inhibited HBV DNA by 50% (EC50) were determined (See Table 1).
# in vitro = settings: human
# Experimental: The transfected cells were selected with G418 (also known as Genticin, purchased from Invitrogen). […] These cells were maintained in Dulbecco's modified Eagle's medium (DMEM)-F12 medium (Invitrogen) supplemented with 10% fetal bovine serum, 100 U/ml penicillin, and 100 μg/ml streptomycin, 0.5 mg/ml of G418 and 1 μg/ml tetracycline.
# To determine if the anti-HBV effect of compound is due to cytotoxicity, HepDE 19 cells (5×10^3 cells/well) were seeded into 96-well plates and compounds were treated as described above. […] Four hours after incubation at 37° C., the absorbance at wavelengths of 450 nm and 630 nm (OD450 and OD630) was recorded by a plate reader.
SMILES,EC50 (HBV DNA),CC50 at 5 days (in vitro)
"C[C@@]1(c2ccc(F)c(F)c2)N=C(c2nccs2)NC(CN2CC(F)(F)C[C@H]2C(=O)O)=C1C#N [Example 23, (S)-1-[(S)-5-Cyano-6-(3,4-difluoro-phenyl)-6-methyl-2-thiazol-2-yl-3,6-dihydro-pyrimidin-4-ylmethyl]-4,4-difluoro-pyrrolidine-2-carboxylic acid]",7 µM,> 100 µM
"CCOC(=O)C1=C(CN2CC(F)(F)C[C@H]2C(=O)O)NC(c2nccs2)=N[C@@]1(C)c1ccc(F)c(F)c1 [Example 24, (S)-6-((S)-2-carboxy-4,4-difluoro-pyrrolidin-1-ylmethyl)-4-(3,4-difluoro-phenyl)-4-methyl-2-thiazol-2-yl-1,4-dihydro-pyrimidine-5-carboxylic acid ethyl ester]",0.8 µM,≥ 100 µM
"COC(=O)C1=C(CN2CC(F)(F)CCC2C(=O)O)NC(c2nccs2)=N[C@@]1(C)c1ccc(F)cc1 (stereo partly drawn) [Example 25, (S)-6-(2-carboxy-5,5-difluoro-piperidin-1-ylmethyl)-4-(4-fluoro-phenyl)-4-methyl-2-thiazol-2-yl-1,4-dihydro-pyrimidine-5-carboxylic acid methyl ester]",1.09 µM,≥ 100 µM
"COC(=O)C1=C(CN2CCC(F)(F)CC2C(=O)O)NC(c2nccs2)=N[C@@]1(C)c1ccc(F)cc1 (stereo partly drawn) [Example 26, (S)-6-(2-carboxy-4,4-difluoro-piperidin-1-ylmethyl) 4-(4-fluoro-phenyl)-4-methyl-2-thiazol-2-yl-1,4-dihydro-pyrimidine-5-carboxylic acid methyl ester]",1.97 µM,≥ 100 µM
"COC(=O)C1=C(CN2CC(F)(F)C[C@H]2C(=O)O)NC(c2nccn2C)=N[C@@]1(C)c1ccc(F)cc1 [Example 27, (S)-6-((S)-2-carboxy-4,4-difluoro-pyrrolidin-1-ylmethyl)-4-(4-fluoro-phenyl)-4-methyl-2-(1-methyl-1H-imidazol-2-yl)-1,4-dihydro-pyrimidine-5-carboxylic acid methyl ester]",2.72 µM,55.8 µM
"CCOC(=O)C1=C(CN2CC(F)(F)C[C@H]2C(=O)O)NC(c2nccs2)=N[C@]1(C)c1ccc(F)c(F)c1 [Example 28, (R)-6-((S)-2-carboxy-4,4-difluoro-pyrrolidin-1-ylmethyl)-4-(3,4-difluoro-phenyl)-4-methyl-2-thiazol-2-yl-1,4-dihydro-pyrimidine-5-carboxylic acid ethyl ester]",7.48 µM,≥ 100 µM
"CCOC(=O)C1=C(CN2CCOC[C@H]2C(=O)O)NC(c2nccs2)=NC1(C)c1ccc(F)c(F)c1 (stereo partly drawn) [Example 29, (S)-4-[6-(3,4-difluoro-phenyl)-5-ethoxycarbonyl-6-methyl-2-thiazol-2-yl-3,6-dihydro-pyrimidin-4-ylmethyl]-morpholine-3-carboxylic acid]",3.98 µM,≥ 100 µM
"COC(=O)C1=C(CN2CCOC[C@H]2C(=O)O)NC(c2nccn2C)=N[C@@]1(C)c1ccc(F)cc1 [Example 30, (S)-4-[(S)-6-(4-fluoro-phenyl)-5-methoxycarbonyl-6-methyl-2-(1-methyl-1H-imidazol-2-yl)-3,6-dihydro-pyrimidin-4-ylmethyl]-morpholine-3-carboxylic acid]",6.77 µM,≥ 100 µM
"COC(=O)C1=C(CN2CC(F)(F)C[C@H]2C(=O)O)NC(c2nc(C)cs2)=N[C@]1(C)c1ccc(F)cc1 [Example 31, (R)-6-((S)-2-carboxy-4,4-difluoro-pyrrolidin-1-ylmethyl)-4-(4-fluoro-phenyl)-4-methyl-2-(4-methyl-thiazol-2-yl)-1,4-dihydro-pyrimidine-5-carboxylic acid methyl ester]",1.67 µM,≥ 100 µM
"COC(=O)C1=C(CN2CC(F)(F)C[C@H]2C(=O)O)NC(c2nc(C)cs2)=N[C@@]1(C)c1ccc(F)cc1 [Example 32, (S)-6-((S)-2-carboxy-4,4-difluoro-pyrrolidin-1-ylmethyl)-4-(4-fluoro-phenyl)-4-methyl-2-(4-methyl-thiazol-2-yl)-1,4-dihydro-pyrimidine-5-carboxylic acid methyl ester]",0.13 µM,75 µM
"COC(=O)C1=C(CN2CC(F)(F)C[C@H]2C(=O)O)NC(c2ncc(Cl)s2)=N[C@@]1(C)c1ccc(F)cc1 [Example 33, (S)-6-((S)-2-carboxy-4,4-difluoro-pyrrolidin-1-ylmethyl)-2-(5-chloro-thiazol-2-yl)-4-(4-fluoro-phenyl)-4-methyl-1,4-dihydro-pyrimidine-5-carboxylic acid methyl ester]",2.07 µM,80 µM
"COC(=O)C1=C(CN2C[C@H](F)C[C@H]2C(=O)O)NC(c2nccs2)=N[C@@]1(C)c1ccc(F)cc1 [Example 34, (S)-6-((2S,4R)-2-Carboxy-4-fluoro-pyrrolidin-1-ylmethyl)-4-(4-fluoro-phenyl)-4-methyl-2-thiazol-2-yl-1,4-dihydro-pyrimidine-5-carboxylic acid methyl ester]",2.84 µM,≥ 100 µM
"COC(=O)C1=C(CN2CC(F)(F)C[C@H]2C(=O)O)NC(c2ccon2)=NC1(C)c1ccc(F)cc1 (stereo partly drawn) [Example 35, 6-((S)-2-carboxy-4,4-difluoro-pyrrolidin-1-ylmethyl)-4-(4-fluoro-phenyl)-2-isoxazol-3-yl-4-methyl-1,4-dihydro-pyrimidine-5-carboxylic acid methyl ester]",15 µM,≥ 100 µM
"COC(=O)C1=C(CN2CC(F)(F)C[C@@]2(C)C(=O)O)NC(c2nccs2)=N[C@]1(C)c1ccc(F)cc1 [Example 36, (R)-6-((S)-2-carboxy-4,4-difluoro-2-methyl-pyrrolidin-1-ylmethyl)-4-(4-fluoro-phenyl)-4-methyl-2-thiazol-2-yl-1,4-dihydro-pyrimidine-5-carboxylic acid methyl ester]",7.49 µM,≥ 100 µM
"COC(=O)C1=C(CN2CC(F)(F)C[C@H]2C(=O)O)NC(c2ncc(C)s2)=N[C@@]1(C)c1ccc(F)cc1 [Example 37, (S)-6-((S)-2-carboxy-4,4-difluoro-pyrrolidin-1-ylmethyl)-4-(4-fluoro-phenyl)-4-methyl-2-(5-methyl-thiazol-2-yl)-1,4-dihydro-pyrimidine-5-carboxylic acid methyl ester]",0.47 µM,85 µM
"COC(=O)C1=C(CN2C[C@@H](F)C[C@H]2C(=O)O)NC(c2nccs2)=N[C@@]1(C)c1ccc(F)cc1 [Example 39, (S)-6-((2S,4S)-2-carboxy-4-fluoro-pyrrolidin-1-ylmethyl)-4-(4-fluoro-phenyl)-4-methyl-2-thiazol-2-yl-1,4-dihydro-pyrimidine-5-carboxylic acid methyl ester]",10.5 µM,≥ 100 µM
"COC(=O)C1=C(CN2CC(F)(F)C[C@H]2C(=O)O)NC(c2cc(C)on2)=NC1(C)c1ccc(F)cc1 (stereo partly drawn) [Example 40, 6-((S)-2-carboxy-4,4-difluoro-pyrrolidin-1-ylmethyl)-4-(4-fluoro-phenyl)-4-methyl-2-(5-methyl-isoxazol-3-yl)-1,4-dihydro-pyrimidine-5-carboxylic acid methyl ester]",5.39 µM,≥ 100 µM
"COC(=O)C1=C(CN2CC(F)(F)C[C@H]2C(=O)O)NC(c2sccc2F)=N[C@@]1(C)c1ccc(F)cc1 [Example 41, (S)-6-((S)-2-carboxy-4,4-difluoro-pyrrolidin-1-ylmethyl)-4-(4-fluoro-phenyl)-2-(3-fluoro-thiophen-2-yl)-4-methyl-1,4-dihydro-pyrimidine-5-carboxylic acid methyl ester]",0.285 µM,≥ 100 µM
"COC(=O)C1=C(CN2CC(F)(F)C[C@H]2C(=O)O)NC(c2sccc2F)=N[C@]1(C)c1ccc(F)cc1 [Example 42, (R)-6-((S)-2-carboxy-4,4-difluoro-pyrrolidin-1-ylmethyl)-4-(4-fluoro-phenyl)-2-(3-fluoro-thiophen-2-yl)-4-methyl-1,4-dihydro-pyrimidine-5-carboxylic acid methyl ester]",6.81 µM,≥ 100 µM
"COC(=O)C1=C(CN2CC(F)(F)C[C@H]2C(=O)O)NC(c2cc(F)cs2)=N[C@@]1(C)c1ccc(F)cc1 [Example 43, (S)-6-((S)-2-carboxy-4,4-difluoro-pyrrolidin-1-ylmethyl)-4-(4-fluoro-phenyl)-2-(4-fluoro-thiophen-2-yl)-4-methyl-1,4-dihydro-pyrimidine-5-carboxylic acid methyl ester]",0.131 µM,≥ 100 µM
